Reference: US20240307393A1, “PHARMACEUTICAL COMPOSITION FOR CANCER PREVENTION OR TREATMENT, COMPRISING CDK4/6 INHIBITOR AND TRICYCLIC ANTIDEPRESSANT” (priority 2021, published 2024)

Legend:
[1] = system: lung cancer cell line H460; test: WST-1 cancer cell killing (cell survival) test in lung cancer cell line H460; type: cell-based; conditions: 48 hours; for Cell survival rate (%) Combined treatment with abemaciclib: antidepressant at Table 1 concentration combined with 4 μM abemaciclib; for Cell survival rate (%) Combined treatment with palbociclib: antidepressant at Table 1 concentration combined with 15 μM palbociclib; for Cell survival rate (%) Combined treatment with ribociclib: antidepressant at Table 1 concentration combined with 50 μM ribociclib; for Cell survival rate (%) Treatment with antidepressants alone: imipramine 100, clomipramine 40, desipramine 50, amitriptyline 45, imipramine blue 0.5 μM (Table 1)
Protocol: (§2) This experiment was conducted on the lung cancer cell line H460, the colorectal cancer cell line HCT116, and the breast cancer cell line MCF7. […] The cell lines H460 and MCF7 were cultured using RPMI1640 medium containing 10% FBS and 1% penicillin-streptomycin, and the cell line HCT116 was cultured using McCoy's 5A medium containing 10% FBS and 1% penicillin-streptomycin.
(§3) The cell lines H460, HCT116 and MCF7 were cultured at 3×10^3 cells/well in a 96 well plate. The next day, each drug was prepared at the concentrations shown in Tables 1 and 2, mixed with the medium, and then added to each well and left for 48 hours. After 48 hours, 10 ul/well of WST-1 reagent was added thereto and reacted for 1 hour. Samples reacted with WST-1 were analyzed by ELISA at 450 nM, and the same conditions were repeated three times to calculate the average value and standard error.

[2] = system: colorectal cancer cell line HCT116; test: WST-1 cancer cell killing (cell survival) test in colorectal cancer cell line HCT116; type: cell-based, human; conditions: 48 hours; for Cell survival rate (%) Combined treatment with abemaciclib: antidepressant at Table 1 concentration combined with 0.2 μM abemaciclib; for Cell survival rate (%) Combined treatment with palbociclib: antidepressant at Table 1 concentration combined with 5 μM palbociclib; for Cell survival rate (%) Combined treatment with ribociclib: antidepressant at Table 1 concentration combined with 20 μM ribociclib; for Cell survival rate (%) Treatment with antidepressants alone: imipramine 100, clomipramine 40, desipramine 20, amitriptyline 25, imipramine blue 0.4 μM (Table 1)
Protocol: as §2, §3

[3] = system: breast cancer cell line MCF7; test: WST-1 cancer cell killing (cell survival) test in breast cancer cell line MCF7; type: cell-based; conditions: 48 hours; for Cell survival rate (%) Combined treatment with abemaciclib: antidepressant at Table 1 concentration combined with 10 μM abemaciclib; for Cell survival rate (%) Combined treatment with palbociclib: antidepressant at Table 1 concentration combined with 20 μM palbociclib; for Cell survival rate (%) Combined treatment with ribociclib: antidepressant at Table 1 concentration combined with 30 μM ribociclib; for Cell survival rate (%) Treatment with antidepressants alone: imipramine 50, clomipramine 20, desipramine 50, amitriptyline 50, imipramine blue 0.1 μM (Table 1)
Protocol: This experiment was conducted on the lung cancer cell line H460, the colorectal cancer cell line HCT116, and the breast cancer cell line MCF7. As for the genetic characteristics of each cell line, the lung cancer cell line H460 has a KRAS mutation [p.Q61H], the colorectal cancer cell line HCT116 has a KRAS mutation [p.G13D], and the breast cancer cell line MCF7 has the characteristic of being positive for estrogen receptor and progesterone receptor but negative for HER2. The cell lines H460 and MCF7 were cultured using RPMI1640 medium containing 10% FBS and 1% penicillin-streptomycin, and the cell line HCT116 was cultured using McCoy's 5A medium containing 10% FBS and 1% penicillin-streptomycin.
Specifically, abemaciclib, ribociclib and palbociclib were used as CDK4/6 inhibitors, and DMSO was used as a solvent to prepare the drug stock. […] Each drug was used after diluting to the concentrations shown in Table 1 (antidepressant concentration used (μM)) and Table 2 (CDK4/6 inhibitor concentration used (μM)) below.
The cell lines H460, HCT116 and MCF7 were cultured at 3×10^3 cells/well in a 96 well plate. The next day, each drug was prepared at the concentrations shown in Tables 1 and 2, mixed with the medium, and then added to each well and left for 48 hours. After 48 hours, 10 ul/well of WST-1 reagent was added thereto and reacted for 1 hour. Samples reacted with WST-1 were analyzed by ELISA at […], and the same conditions were repeated three times to calculate the average value and standard error.

[4] = system: colorectal cancer cell line HCT116 subcutaneous tumor; test: Tumor growth inhibition in HCT116 subcutaneous tumor model; type: in vivo, nude mice (Balb/c nude); parameters: reference not given here; conditions: HCT116 subcutaneous tumor in nude mice, desipramine 20 mg/kg intraperitoneally, abemaciclib 30 mg/kg orally, once a day
Protocol: To evaluate the anti-tumor effect, the tumor size was measured every day until day 14 after treatment, and the differences between each group were analyzed. The tumor size was calculated as follows: V (mm^3)=1/2×long axis (mm)×short axis (mm)×height (mm). By day 14, the tumor size was measured, a tumor growth graph was created, and the tumor size between each group was compared and analyzed.

[5] = Toxicity evaluation: hematoxylin and eosin histology of major normal organs; type: in vivo, nude mice (Balb/c nude); conditions: day 14; hematoxylin and eosin staining; desipramine 20 mg/kg intraperitoneally, abemaciclib 30 mg/kg orally, once a day
Protocol: (§1) Specifically, the human colorectal cancer cell line HCT116 was purchased from the American Type Culture Collection (ATCC, USA) and cultured in McCoy's 5A medium containing 10% fetal bovine serum (FBS) and penicillin-streptomycin under conditions of 37° C., 5% carbon dioxide and standard humidity.

[6] = Toxicity evaluation: body weight for 14 days; type: in vivo, nude mice (Balb/c nude); conditions: measured for 14 days; desipramine 20 mg/kg intraperitoneally, abemaciclib 30 mg/kg orally, once a day
Protocol: as §1

Compound	Cell survival rate (%) Combined treatment with abemaciclib [1] [%]	Cell survival rate (%) Combined treatment with palbociclib [1] [%]	Cell survival rate (%) Combined treatment with ribociclib [1] [%]	Cell survival rate (%) Combined treatment with abemaciclib [2] [%]	Cell survival rate (%) Combined treatment with palbociclib [2] [%]	Cell survival rate (%) Combined treatment with ribociclib [2] [%]	Cell survival rate (%) Combined treatment with abemaciclib [3] [%]	Cell survival rate (%) Combined treatment with palbociclib [3] [%]	Cell survival rate (%) Combined treatment with ribociclib [3] [%]	Cell survival rate (%) Treatment with antidepressants alone [1] [%]	Cell survival rate (%) Treatment with antidepressants alone [2] [%]	Cell survival rate (%) Treatment with antidepressants alone [3] [%]	other results
CN(C)CCCN1c2ccccc2CCc2ccccc21 [Imipramine]	20	53	47	58	41	39	34	53	55	–	–	–	–
CNCCCN1c2ccccc2CCc2ccccc21 [Desipramine]	24	14	16	28	44	29	–	–	–	40	71	60	tumor size on day 14 [4]: 75.2%; histological changes of major organs (heart, lung, liver, spleen, kidney) compared to the control group [5]: no histological changes; body weight difference between groups [6]: no significant difference in body weight
CN(C)CCCN1c2ccccc2CCc2ccc(Cl)cc21 [Clomipramine]	20	33	34	32	34	23	37	43	56	65	65	81	–
CCN(CC)c1ccc(C(c2ccc(N(CC)CC)cc2)=c2ccc3c(c2)CCc2ccccc2[N+]=3CCCN(C)C)cc1 [Imipramine blue]	50	36	36	39	43	31	43	59	60	62	53	88	–
CN(C)CCC=C1c2ccccc2CCc2ccccc21 [Amitriptyline]	50	58	32	64	54	46	21	45	28	65	86	63	–
CC(=O)c1c(C)c2cnc(Nc3ccc(N4CCNCC4)cn3)nc2n(C2CCCC2)c1=O [palbociclib]	–	–	–	–	–	–	–	–	–	–	–	–	lung cancer cell survival rate, palbociclib alone ([1]; 15 μM palbociclib alone, WST-1): 67%; colorectal cancer cell survival rate, palbociclib alone (HCT116 section) ([2]; 5 μM palbociclib alone, WST-1): 79%; breast cancer cell survival rate, palbociclib alone ([3]; 20 μM palbociclib alone, WST-1): 75%
CCN1CCN(Cc2ccc(Nc3ncc(F)c(-c4cc(F)c5nc(C)n(C(C)C)c5c4)n3)nc2)CC1 [abemaciclib]	–	–	–	–	–	–	–	–	–	–	–	–	lung cancer cell survival rate, abemaciclib alone ([1]; 4 μM abemaciclib alone, WST-1): 71%; colorectal cancer cell survival rate, abemaciclib alone ([2]; 0.2 μM abemaciclib alone, WST-1): 87%; breast cancer cell survival rate, abemaciclib alone ([3]; 10 μM abemaciclib alone, WST-1): 59%; tumor size on day 14 [4]: 54.6%; histological changes of major organs (heart, lung, liver, spleen, kidney) compared to the control group [5]: no histological changes; body weight difference between groups [6]: no significant difference in body weight
CN(C)C(=O)c1cc2cnc(Nc3ccc(N4CCNCC4)cn3)nc2n1C1CCCC1 [ribociclib]	–	–	–	–	–	–	–	–	–	–	–	–	lung cancer cell survival rate, ribociclib alone ([1]; 50 μM ribociclib alone, WST-1): 72%; colorectal cancer cell survival rate, ribociclib alone ([2]; 20 μM ribociclib alone, WST-1): 73%; breast cancer cell survival rate, ribociclib alone ([3]; 30 μM ribociclib alone, WST-1): 80%
